The source of these data is patent US20070060604A1, “Antibiotic pharmaceutical composition with lysergol as bio-enhancer and method of treatment” (COUNCIL OF SCIENTIFIC AND INDUSTRIAL RESEARCH, priority 2002, published 2007).

For test [1], the system named is Escherichia coli (ATCC 10536). Nature of the test: Broth assay of killing action of antibiotic alone and with lysergol (viable cell count). The conditions noted are these: E. coli.
For test [2], the system named is Mycobacterium smegmatis (ATCC 14468). Described as above. The following applies: M. smegmatis; antibiotic 0.2 μg/ml.
For test [3], the system named is Bacillus subtilis (ATCC 6051). The description is as above. The conditions noted are these: B. subtilis; antibiotic 0.4 μg/ml.
In test [4] the test system is bacteria. Nature of the test: Growth of bacteria in presence of lysergol alone. The test is classed as cell-based. The conditions noted are these: bacteria grown in presence of lysergol alone. From the text:
1. […] Process for the Isolation of Lysergol

Take `CO[C@H]1/C=C/O[C@@]2(C)Oc3c(C)c(O)c4c(O)c(c(/C=N/N5CCN(C)CC5)c(O)c4c3C2=O)NC(=O)/C(C)=C\C=C\[C@H](C)[C@H](O)[C@@H](C)[C@@H](O)[C@@H](C)[C@H](OC(C)=O)[C@@H]1C` [Rifampicin]: the “Survival fraction of viable cells upon treatment with antibiotic alone” value in test [1] (antibiotic 10 μg/ml) is reported as 0.35-0.45; in test [1] (antibiotic 20 μg/ml), 0.25-0.30; in test [2], 0.45-0.54; in test [3], 0.085-0.096.

With `CN1C[C@H](CO)C=C2c3cccc4[nH]cc(c34)C[C@H]21` [lysergol, 9,10-Didehydro-6-methylergoline-8-[…]-methanol], in test [4], the “Killing of bacteria by the compound as such” value is on record as “no significant killing”.
